# Data: patent US10633389B2, “CARM1 inhibitors and uses thereof” (Epizyme, Inc., priority 2013, dated 2020)
# Legend:
# human CARM1 (PRMT4) = human CARM1 (PRMT4) (Homo sapiens (Human), UniProt Q86X55); experiment: CARM1 enzyme assay on peptide substrate (3H-SAM Flashplate); conditions: Biochemical potencies, read-out: Biochem IC50
# Description: S-adenosylmethionine (SAM), S-adenosylhomocysteine (SAH), bicine, Tween20, dimethylsulfoxide (DMSO), bovine skin gelatin (BSG), sodium butyrate and Tris(2-carboxyethyl)phosphine hydrochloride solution (TCEP) were purchased from Sigma-Aldrich at the highest level of purity possible. ^3H-SAM was purchase from American Radiolabeled Chemicals with a specific activity of 80 Ci/mmol. 384-well streptavidin Flashplates were purchased from PerkinElmer.
# Peptide representative of human histone H3 residues 16-30 was synthesized with an N-terminal linker-affinity tag motif and a C-terminal amide cap by 21st Century Biochemicals. […] The sequence was Biot-Ahx-[…]-amide and contained a monomethylated arginine at position 26 (SEQ ID NO.:1).
# The gene sequence encoding isoform 1 containing a deletion of amino acids 539-561 was amplified subsequently and subcloned into pFastBacMam (Viva Biotech).
# Recombinant baculovirus were generated according to Bac-to-Bac kit instructions (Life Technologies). Protein over-expression was accomplished by infecting exponentially growing HEK 293F cell culture at 1.3×10^6 cell/ml with virus (MOI=10) in the presence of 8 mM sodium butyrate. Infections were carried out at 37° C. for 48 hours, harvested by centrifugation, and stored at −80° C. for purification.
# Expressed full-length human Flag- and His-tagged CARM1 protein was purified from cell paste by anti-flag M2 affinity chromatography with resin equilibrated with buffer containing 20 mM Tris, 150 mM NaC, 5% glycerol, pH 7.8. Column was washed with 500 mM NaCl in buffer A and Flag-CARM1-His was eluted with 200 ug/ml FLAG peptide in buffer A. Pooled fractions were dialyzed in 20 mM Tris, 150 mM NaCl, 5% glycerol and 1 mM DTT, pH 7.8.
# The assays were all performed in a buffer consisting of 20 mM Bicine (pH=7.6), 1 mM TCEP, 0.005% BSG, and 0.002% Tween 20, prepared on the day of use. Compounds in 100% DMSO (1 ul) were spotted into a polypropylene 384-well V-bottom plates (Greiner) using a Platemate Plus outfitted with a 384-channel head (Thermo Scientific). DMSO (1 ul) was added to Columns 11, 12, 23, 24, rows A-H for the maximum signal control and 1 ul of SAH, a known product and inhibitor of CARM1, was added to columns 11, 12, 23, 24, rows I-P for the minimum signal control. A cocktail (40 ul) containing the CARM1 enzyme was added by Multidrop Combi (Thermo-Fisher). The compounds were allowed to incubate with CARM1 for 30 min at room temperature, then a cocktail (10 ul) containing ^3H-SAM and peptide was added to initiate the reaction (final volume=51 ul). The final concentrations of the components were as follows: CARM1 was 0.25 nM, ^3H-SAM was 30 nM, peptide was 250 nM, SAH in the minimum signal control wells was 1 mM, and the DMSO concentration was 2%. The assays were stopped by the addition of non-radiolabeled SAM (10 ul) to a final concentration of 300 uM, which dilutes the ^3H-SAM to a level where its incorporation into the peptide substrate is no longer detectable. 50 ul of the reaction in the 384-well polypropylene plate was then transferred to a 384-well Flashplate and the biotinylated peptides were allowed to bind to the streptavidin surface for at least 1 hour before being washed once with 0.1% Tween20 in a Biotek ELx405 plate washer. The plates were then read in a PerkinElmer TopCount plate reader to measure the quantity of ^3H-labeled peptide bound to the Flashplate surface, measured as disintegrations per minute (dpm) or alternatively, referred to as counts per minute (cpm).
# The Hill Coefficient normally allowed to float but may also be fixed at 1 in a 3-parameter fit.
# [1] = test system: asymmetric di-methyl PABP1 in RKO cells; experiment: RKO methylation assay, In Cell Western (ICW) for asymmetric di-methyl PABP1; type: cell-based; conditions: Cellular potencies, ICW PABP1me2a
# Method in brief: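 In-cell Western on fixed RKO cells after 48 h compound exposure: anti-asymmetric di-methyl PABP1 signal at 800 nm over DRAQ5 DNA signal at 700 nm. Percent inhibition set between DMSO wells and wells with 20 μM reference compound; IC50 curves fitted in triplicate.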
# human CARM1 (PRMT4), sequence (Q86X55 other isoform, or with tags, fused parts or gaps isoform Q86X55-1): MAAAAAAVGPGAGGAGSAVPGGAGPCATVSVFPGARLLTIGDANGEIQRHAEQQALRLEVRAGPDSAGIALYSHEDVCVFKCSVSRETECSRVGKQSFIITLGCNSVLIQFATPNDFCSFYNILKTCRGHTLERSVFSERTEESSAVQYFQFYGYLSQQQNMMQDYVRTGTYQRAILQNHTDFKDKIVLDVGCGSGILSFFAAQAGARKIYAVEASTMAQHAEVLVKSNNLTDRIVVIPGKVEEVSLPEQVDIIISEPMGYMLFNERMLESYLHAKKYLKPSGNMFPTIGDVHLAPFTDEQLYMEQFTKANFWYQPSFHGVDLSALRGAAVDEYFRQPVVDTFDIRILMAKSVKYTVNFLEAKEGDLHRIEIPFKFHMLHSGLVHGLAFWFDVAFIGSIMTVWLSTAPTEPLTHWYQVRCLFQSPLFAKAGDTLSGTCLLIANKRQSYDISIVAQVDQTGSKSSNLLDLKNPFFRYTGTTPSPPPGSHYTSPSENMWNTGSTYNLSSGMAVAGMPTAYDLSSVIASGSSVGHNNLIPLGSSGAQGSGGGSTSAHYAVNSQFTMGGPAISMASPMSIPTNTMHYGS
SMILES,IC50 (human CARM1 (PRMT4)) [µM],"IC50 ([1]; Homo sapiens, RKO) [µM]",IC50 [1] [µM]
CNCC(O)COc1cccc(-c2nc(NC(C)C3CCOCC3)cc(-c3c(C)noc3C)n2)c1 (stereo not drawn) [Example 158-1a],0.1 to 1,5 to 10,
CNCC(O)COc1cccc(-c2nc(C(=O)N3CCOCC3)cc(N(C)C3CCOCC3)n2)c1 (stereo not drawn) [Example 604-1a],1 to 3,10 to 20,
CNCC(O)COc1cccc(-c2nc(C(=O)N(C)C)cc(N(C)C3CCOCC3)n2)c1 (stereo not drawn) [Example 593-1a],0.1 to 1,10 to 20,
CNCC(O)COc1cccc(-c2nc(N[C@@H]3CCOC3)c(C)c(-c3ccnc(N4CCC4)c3)n2)c1 (stereo partly drawn) [Example 407-1a],0.1 to 1,10 to 20,
CNCC(O)COc1cccc(-c2nc(C(=O)N(C)C)cc(-c3c(C)noc3C)n2)c1 (stereo not drawn) [Example 63-1a],1 to 3,10 to 20,
CNCC(O)COc1cccc(-c2nc(NC3CCOC3)c(C)c(C(=O)N(C)C3CCOCC3)n2)c1 (stereo not drawn) [Example 402-1a],3 to 10,10 to 20,
CNCC(O)COc1cccc(-c2nc(N3CCN(CC(F)(F)F)[C@@H](C)C3)cc(N(C)C3CCOCC3)n2)c1 (stereo partly drawn) [Example 594-1a],0.1 to 1,10 to 20,
CNCC(O)COc1cccc(-c2nc(NC3CCOCC3)c(C)c(N3CCNC(C)C3)n2)c1 (stereo not drawn) [Example 645-1a],1 to 3,≥ 20,
CNCC(O)COc1cccc(-c2nc(N(C)c3cnc(C)nc3)cc(N(C)C3CCOCC3)n2)c1 (stereo not drawn) [Example 588-1a],0.1 to 1,10 to 20,
CNCC(O)COc1cccc(-c2nc(NC3CCOCC3)c(C)c(-c3c(C)n[nH]c3C)n2)c1 (stereo not drawn) [Example 661-1a],0.1 to 1,≥ 20,
CNCC(O)COc1cccc(-c2nc(NCCCN3CCCCCC3=O)cc(N3CCOCC3)n2)c1 (stereo not drawn) [Example 685-1a],1 to 3,≥ 20,
CNCC(O)COc1cccc(-c2nc(N[C@@H]3CCOC3)c(C)c(-c3cccnc3N)n2)c1 (stereo partly drawn) [Example 416-1a],3 to 10,10 to 20,
CNCC(O)COc1cccc(-c2nc(N3CCN(C(C)=O)[C@@H](C)C3)c(C)c(N(C)[C@@H]3CCOC3)n2)c1 (stereo partly drawn) [Example 410-1a],0.1 to 1,5 to 10,
CNCC(O)COc1cccc(-c2nc(N[C@@H]3CCOC3)c(C)c(-c3cccnc3F)n2)c1 (stereo partly drawn) [Example 348-1a],0.1 to 1,10 to 20,
CNCC(O)COc1cccc(-c2nc(C3CCN(S(C)(=O)=O)CC3)cc(N(C)C3CCOCC3)n2)c1 (stereo not drawn) [Example 527-1a],0.1 to 1,5 to 10,
CNCC(O)COc1cccc(-c2nc(C(=O)NC3CCOCC3)cc(N(C)C3CCOCC3)n2)c1 (stereo not drawn) [Example 530-1a],0.1 to 1,5 to 10,
CNCC(O)COc1cccc(-c2nc(NC3CCOC3)c(C)c(N3CC[C@H](S(C)(=O)=O)C3)n2)c1 (stereo partly drawn) [Example 431-1a],0.1 to 1,10 to 20,
CNCC(O)COc1cccc(-c2nc(NCCOC)cc(-c3ccc(OC)c(OC)c3)n2)c1 (stereo not drawn) [Example 630-1a],0.1 to 1,≥ 20,
CNCC(O)COc1cccc(-c2nc(C(=O)NC)cc(N(C)C3CCOCC3)n2)c1 (stereo not drawn) [Example 554-1a],0.1 to 1,10 to 20,
CNCC(O)COc1cccc(-c2nc(NCC3CCOCC3)cc(N(C)C3CCOCC3)n2)c1 (stereo not drawn) [Example 540-1a],0.1 to 1,10 to 20,
CNCC(O)COc1cccc(-c2nc(N3CCN(CC(F)(F)F)CC3)cc(N(C)C3CCOCC3)n2)c1 (stereo not drawn) [Example 586-1a],0.1 to 1,10 to 20,
CNCC(O)COc1cccc(-c2nc(NCCCN3CCCC3=O)cc(-c3cccc4ncccc34)n2)c1 (stereo not drawn) [Example 648-1a],0.1 to 1,≥ 20,
CNCC(O)COc1cccc(-c2nc(N[C@H]3CO[C@H]4OCC[C@H]43)c(C)c(N3CCOCC3)n2)c1 (stereo partly drawn) [Example 673-1a],0.1 to 1,,10 to 20

SMILES,IC50 (human CARM1 (PRMT4)) [µM],"IC50 ([1]; Homo sapiens, RKO) [µM]",IC50 [1] [µM]
CNCC(O)COc1cccc(-c2nc(NCCOC)cc(-c3ccc4c(c3)OCCO4)n2)c1 (stereo not drawn) [Example 628-1a],0.1 to 1,≥ 20,
CNCC(O)COc1ccc(C#N)c(-c2nc(NC3CCN(C(=O)OC)CC3)c(C)c(-c3c(C)noc3C)n2)c1 (stereo not drawn) [Example 165-3],0.1 to 1,≥ 20,
CNCC(O)COc1cccc(-c2nc(NC3CCOC3)c(C)c(N3CCNC(C(F)(F)F)C3)n2)c1 (stereo not drawn) [Example 419-1a],0.1 to 1,10 to 20,
CNCC(O)COc1cccc(-c2nc(NCCOC)cc(C3=CCCC3)n2)c1 (stereo not drawn) [Example 667-1a],0.1 to 1,≥ 20,
CNCC(O)COc1cccc(-c2nc(N[C@@H]3CCOC3)c(C)c(C(=O)N3CCOCC3)n2)c1 (stereo partly drawn) [Example 403-1a],3 to 10,10 to 20,
CNCC(O)COc1cccc(-c2nc(-c3cnn(CC(C)C)c3)cc(N(CCOC)CCOC)n2)c1 (stereo not drawn) [Example 631-1a],1 to 3,≥ 20,
CNCC(O)COc1cccc(-c2nc(NC3CCOCC3)c(C)c(N(C3CCOCC3)C3CC3)n2)c1 (stereo not drawn) [Example 607-1a],3 to 10,10 to 20,
CNCC(O)COc1cccc(-c2nc(-c3ncc[nH]3)cc(N(C)C3CCOCC3)n2)c1 (stereo not drawn) [Example 550-1a],0.1 to 1,10 to 20,
CNCC(O)COc1cccc(-c2nc(N[C@@H]3CCOC3)c(C)c(N3CCC[C@@H]3C(=O)NC)n2)c1 (stereo partly drawn) [Example 450-1a],0.1 to 1,10 to 20,
CNCC(O)COc1cccc(-c2nc(NC3CCOCC3)c(C)c(N3CCN(S(C)(=O)=O)CC3)n2)c1 (stereo not drawn) [Example 660-1a],1 to 3,≥ 20,
CNC[C@@H](O)COc1ccc(F)c(-c2nc(-c3c(C)noc3C)c(C)c(-c3c(C)noc3C)n2)c1 [Example 78-3],0.1 to 1,≥ 20,
CNCC(O)COc1cccc(-c2nccc(-c3c(C)noc3C)n2)c1 (stereo not drawn) [Example 2-1a],0.1 to 1,10 to 20,
CNCC(O)COc1cccc(-c2nc(N[C@@H]3CCOC3)c(C)c(N3CCC[C@H]3COC)n2)c1 (stereo partly drawn) [Example 395-1a],0.1 to 1,10 to 20,
CNCC(O)COc1cccc(-c2nc(-c3c(C)noc3C)c(C)c(N3CCC[C@@H](N(C)C(=O)OC)C3)n2)c1 (stereo partly drawn) [Example 180-1a],0.1 to 1,10 to 20,
CNCC(O)COc1cccc(-c2nc(N[C@@H]3CC[C@@H](O)C3)cc(N(C)C3CCOCC3)n2)c1 (stereo partly drawn) [Example 600-1a],0.1 to 1,10 to 20,
CNCC(O)COc1cccc(-c2nc(NC3CCOCC3)cc(-c3ccnc(OC)c3)n2)c1 (stereo not drawn) [Example 653-1a],1 to 3,≥ 20,
CNCC(O)COc1cccc(-c2nc(N(C)c3cnc(OC)nc3)cc(N(C)C3CCOCC3)n2)c1 (stereo not drawn) [Example 532-1a],0.1 to 1,5 to 10,
CNCC(O)COc1cccc(-c2nc(NCCCN3CCCC3=O)cc(-c3cc4ccccc4o3)n2)c1 (stereo not drawn) [Example 649-1a],0.1 to 1,≥ 20,
CNCC(O)COc1cccc(-c2nc(NC3CCOCC3)c(CO)c(-c3c(C)noc3C)n2)c1 (stereo not drawn) [Example 213-1a],0.1 to 1,10 to 20,
CNCC(O)COc1cc(Cl)cc(-c2nc(-c3c[nH]c4ccccc34)c(C)c(N(C)C3CCOCC3)n2)c1 (stereo not drawn) [Example 625-1a],0.1 to 1,10 to 20,
CNCC(O)COc1cccc(-c2nc(Nc3c(C)nn(C)c3C)cc(N(C)C3CCOCC3)n2)c1 (stereo not drawn) [Example 555-1a],0.1 to 1,10 to 20,
CNCC(O)COc1cc(Cl)cc(-c2nc(N[C@@H]3CCOC3)c(C)c(C(=O)N(C)CC3CCOCC3)n2)c1 (stereo partly drawn) [Example 353-1a],0.1 to 1,10 to 20,
